Reference: patent US6969449B2, “Multi-well plate and electrode assemblies for ion channel assays” (Vertex Pharmaceuticals (San Diego) LLC, priority 2000, dated 2005)

Legend:
IRK1 channel = IRK1 channel (Rattus norvegicus, UniProt Q64273)
HL5 cells = type: cell-based

Sequence of IRK1 channel (Q64273 whole entry): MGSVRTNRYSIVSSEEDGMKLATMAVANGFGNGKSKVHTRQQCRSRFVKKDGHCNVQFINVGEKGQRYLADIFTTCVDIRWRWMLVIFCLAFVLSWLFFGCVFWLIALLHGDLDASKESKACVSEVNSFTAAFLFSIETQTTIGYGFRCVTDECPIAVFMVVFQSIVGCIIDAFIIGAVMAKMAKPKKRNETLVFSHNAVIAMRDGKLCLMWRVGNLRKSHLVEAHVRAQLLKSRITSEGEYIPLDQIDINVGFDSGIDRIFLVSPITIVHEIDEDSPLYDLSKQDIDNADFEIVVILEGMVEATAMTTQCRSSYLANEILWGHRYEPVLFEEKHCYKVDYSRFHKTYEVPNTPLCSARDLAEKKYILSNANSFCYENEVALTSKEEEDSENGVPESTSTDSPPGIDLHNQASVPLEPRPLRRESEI

Structure (SMILES): CC[N+](CC)(CC)CC [TEA, Tetraethylammonium]
- block of response to electrical stimulation (wild-type HEK-293 cells): partially blocks the response

Structure (SMILES): [Ba+2].[Cl-].[Cl-] [barium chloride]
- voltage change during stimulation with barium block (IRK1 channel): no detectable voltage change

Structure (SMILES): NC1=N[C@H](O)[C@H]2[C@H]3O[C@]4(O)O[C@@H]([C@@H](O)[C@@]2(N1)[C@@H]4O)[C@]3(O)CO [TTX, tetrodotoxin]
- block of the positive response (HL5 cells): partially blocks the positive response
- effect on sustained signal above 50 V/cm (HL5 cells): unaffected
